Test results: patent US12637478B2, “Compound, preparation method thereof, and antibiotic composition comprising same” (priority 2020, dated 2026)
In brackets after ≈: the same amount, converted by molar mass. Read-outs that look alike come from different tables or passages of the source.

Experiments:
[1] = test system: M. avium; experiment: MIC by resazurin (REMA) assay against Mycobacterium, test strain 21; format: cell-based; details: test strain 21, M. avium, resazurin, read-out: MIC
Protocol: (§1) In order to test the antibacterial activity, the medium of Mycobacterium cultured to late log phase was diluted so as to be 4.0×10^5 cells/well in Middlebrook 7H10 agar medium (Difco) supplemented with 10% oleic acid, albumin, dextrose, catalase (OADC, Becton Dickinson) and 0.05% Tween 80 (Sigma Aldrich) and was dispensed into a 96-well plate. The compounds were treated so that DMSO was 1%, and after 3 days, a 0.025% resazurin (REMA) solution was dispensed, and the growth of the bacteria was confirmed after culturing. The MIC value was measured for the antibacterial activity through resazurin (excitation 530 nm, emission 590 nm).

[2] = test system: M. abscessus; experiment: MIC by resazurin (REMA) assay against Mycobacterium, test strain 23; format: cell-based; details: Mycobacteroides abscessus
Protocol: as §1

[3] = test system: M. intracelluare; experiment: MIC by resazurin (REMA) assay against Mycobacterium, test strain 22; format: cell-based; details: Mycobacterium intracellulare
Protocol: as §1

[4] = test system: S. epidermis^MR; experiment: MIC by broth microdilution (aerobic pathogens), test strain 6; format: cell-based, Methicillin resistant Staphylococcus epidermidis; details: Staphylococcus epidermidis
Protocol: (§2) The antibacterial activity of the compounds of Examples 1 to 48 of the present invention against aerobic pathogens were evaluated by measuring the minimum concentration of the antibiotic capable of inhibiting bacterial growth by 90% compared to the growth of the non-drug treated control group. MIC was measured by the broth microdilution method based on CLSI standards [Reference: Clinical and Laboratory Standards Institute Document. (2000) Methods for Dilution Antimicrobial Susceptibility Test for Bacteria that Grow Aerobically-Fifth Edition: M7-A5. CLSI, Villanova, PA].
(§3) All 13 strains such as methicillin susceptible Staphylococcus aureus (MSSA), methicillin resistant Staphylococcus aureus (MRSA), Vancomycin resistant Staphylococcus aureus (VRSA), Staphylococcus epidermidis, methicillin resistant Staphylococcus epidermidis, Enterococcus faecalis, Vancomycin resistant Enterococcus faecalis, Enterococcus faecium, Vancomycin resistant Enterococcus faecium were used.

[5] = test system: S. epidermis; experiment: MIC by broth microdilution (aerobic pathogens), test strain 5; format: cell-based; details: Staphylococcus epidermidis
Protocol: as §2, §3

[6] = test system: E. faecalis^VanA; experiment: MIC by broth microdilution (aerobic pathogens), test strain 8; format: cell-based, Vancomycin resistant Enterococcus faecalis; details: Enterococcus faecalis; test strain 8, E. faecalis^VanA (vancomycin resistant); read-out: MIC
Protocol: as §2, §3

[7] = test system: S. aureus^VR; experiment: MIC by broth microdilution (aerobic pathogens), test strain 4; format: cell-based, Vancomycin resistant Staphylococcus aureus; details: Staphylococcus aureus; test strain 4, S. aureus^VR (vancomycin resistant); read-out: MIC
Protocol: as §2, §3

[8] = test system: S. aureus^MR; experiment: MIC by broth microdilution (aerobic pathogens), test strain 3; format: cell-based, Methicillin resistant Staphylococcus aureus; details: Staphylococcus aureus; test strain 3, S. aureus^MR (methicillin resistant); read-out: MIC
Protocol: as §2, §3

[9] = test system: E. faecium^VRE; experiment: MIC by broth microdilution (aerobic pathogens), test strain 11; format: cell-based, Vancomycin resistant Enterococcus faecium; details: Enterococcus faecium; test strain 11, E. faecium^VRE (vancomycin resistant); read-out: MIC
Protocol: as §2, §3

[10] = test system: E. faecium^LinR; experiment: MIC by broth microdilution (aerobic pathogens), test strain 12; format: cell-based, Linezolid resistant Enterococcus faecium; details: Enterococcus faecium; test strain 12, E. faecium^LinR (linezolid resistant); read-out: MIC
Protocol: as §2, §3

[11] = test system: S. aureus^MS; experiment: MIC by broth microdilution (aerobic pathogens), test strain 2; format: cell-based; details: Staphylococcus aureus; test strain 2, S. aureus^MS; read-out: MIC
Protocol: as §2, §3

[12] = test system: E. faecium; experiment: MIC by broth microdilution (aerobic pathogens), test strain 10; format: cell-based; details: Enterococcus faecium; test strain 10, E. faecium; read-out: MIC
Protocol: as §2, §3

[13] = test system: C. difficile 174; experiment: MIC by agar dilution against Clostridioides difficile, test strain 18; format: cell-based
[14] = test system: C. difficile 152; experiment: MIC by agar dilution against Clostridioides difficile, test strain 14; format: cell-based
[15] = test system: E. faecalis; experiment: MIC by broth microdilution (aerobic pathogens), test strain 7; format: cell-based; details: Enterococcus faecalis
Protocol: as §2, §3

[16] = test system: S. aureus^MS; experiment: MIC by broth microdilution (aerobic pathogens), test strain 1; format: cell-based; details: Staphylococcus aureus
Protocol: as §2, §3

[17] = test system: C. difficile 159; experiment: MIC by agar dilution against Clostridioides difficile, test strain 15; format: cell-based; details: test strain 15, C. difficile 159, anaerobic, agar dilution, read-out: MIC
[18] = test system: C. difficile 181; experiment: MIC by agar dilution against Clostridioides difficile, test strain 19; format: cell-based
[19] = test system: E. faecalis^LinR; experiment: MIC by broth microdilution (aerobic pathogens), test strain 9; format: cell-based, Linezolid resistant Enterococcus faecalis; details: Enterococcus faecalis; test strain 9, E. faecalis^LinR (linezolid resistant); read-out: MIC
Protocol: as §2, §3

[20] = test system: C. difficile 173; experiment: MIC by agar dilution against Clostridioides difficile, test strain 17; format: cell-based
[21] = test system: C. difficile 161; experiment: MIC by agar dilution against Clostridioides difficile, test strain 16; format: cell-based
[22] = test system: C. difficile 9689; experiment: MIC by agar dilution against Clostridioides difficile, test strain 13; format: cell-based
[23] = test strain 23, M. abscessus, resazurin, read-out: MIC
[24] = test strain 22, M. intracelluare, resazurin, read-out: MIC
[25] = test strain 6, S. epidermis^MR (methicillin resistant), read-out: MIC
[26] = test strain 18, C. difficile 174, anaerobic, agar dilution, read-out: MIC
[27] = test strain 14, C. difficile 152, anaerobic, agar dilution, read-out: MIC
[28] = test strain 7, E. faecalis, read-out: MIC
[29] = test strain 1, S. aureus^MS, read-out: MIC
[30] = test strain 19, C. difficile 181, anaerobic, agar dilution, read-out: MIC
[31] = test strain 17, C. difficile 173, anaerobic, agar dilution, read-out: MIC
[32] = test strain 16, C. difficile 161, anaerobic, agar dilution, read-out: MIC
[33] = test strain 13, C. difficile 9689, anaerobic, agar dilution, read-out: MIC

MIC [1] [µg/mL]	MIC [2, 23] [µg/mL]	MIC [3, 24] [µg/mL]	MIC [11] [µg/mL]	MIC [16, 29] [µg/mL]	MIC [19] [µg/mL]	SMILES	MIC [4, 25] [µg/mL]	MIC [5] [µg/mL]	MIC [6] [µg/mL]	MIC [12] [µg/mL]	MIC [13, 26] [µg/mL]	MIC [14, 27] [µg/mL]	MIC [15, 28] [µg/mL]	MIC [18, 30] [µg/mL]	MIC [20, 31] [µg/mL]	MIC [21, 32] [µg/mL]	MIC [22, 33] [µg/mL]	other results
0.205 (≈ 0.274 µM)	1.28 (≈ 1.71 µM)	0.143 (≈ 0.191 µM)				CC[C@H]1OC(=O)[C@H](C)[C@@H](O[C@H]2C[C@@](C)(OC)[C@@H](O)[C@H](C)O2)[C@H](C)[C@@H](O[C@@H]2O[C@H](C)C[C@H](N(C)C)[C@H]2O)[C@](C)(OC)C[C@@H](C)C(=O)[C@H](C)[C@@H](O)[C@]1(C)O [Cla, Clarithromycin, reference compound]												
0.135 (≈ 0.108 µM)			1 (≈ 0.797 µM)	1 (≈ 0.797 µM)	1 (≈ 0.797 µM)	C/C=C1\NC(=O)[C@H]([C@@H](C)O)NC(=O)c2csc(n2)-c2ccc(-c3nc(-c4nc(C(=O)NC5(C(=O)NCCCN6CCN(C(C)C)CC6)CC5)cs4)cs3)nc2-c2csc(n2)[C@H]([C@@H](C)O)NC(=O)c2csc(n2)[C@H](C(C)C)NC(=O)c2csc1n2 [Compound 12]	1 (≈ 0.797 µM)		1 (≈ 0.797 µM)	1 (≈ 0.797 µM)	0.125 (≈ 0.0996 µM)	1 (≈ 0.797 µM)	1 (≈ 0.797 µM)	0.125 (≈ 0.0996 µM)	1 (≈ 0.797 µM)	0.5 (≈ 0.399 µM)	0.5 (≈ 0.399 µM)	MIC ([5]; test strain 5, S. epidermis, read-out: MIC): 0.5 µg/mL (≈ 0.399 µM)
						C/C=C1\NC(=O)[C@H]([C@@H](C)O)NC(=O)c2csc(n2)-c2ccc(-c3nc(-c4nc(C(=O)NC5(C(=O)NN6CC(=O)N(CC(=O)OC)C6=O)CC5)cs4)cs3)nc2-c2csc(n2)[C@H]([C@@H](C)O)NC(=O)c2csc(n2)[C@H](C(C)C)NC(=O)c2csc1n2 [Compound 26]		0.5 (≈ 0.398 µM)										MIC [4]: 1 µg/mL (≈ 0.796 µM); MIC [13]; 174: 0.5 µg/mL (≈ 0.398 µM); MIC [14]; 152: 0.5 µg/mL (≈ 0.398 µM); MIC [15]: 1 µg/mL (≈ 0.796 µM); MIC [2]: 0.726 µg/mL (≈ 0.578 µM); MIC [16]: 1 µg/mL (≈ 0.796 µM); MIC [18]; 181: 1 µg/mL (≈ 0.796 µM); MIC [20]; 173: 0.5 µg/mL (≈ 0.398 µM); MIC [21]; 161: 0.5 µg/mL (≈ 0.398 µM); MIC [22]; 9689: 1 µg/mL (≈ 0.796 µM); MIC [3]: 0.043 µg/mL (≈ 0.0342 µM)
0.13 (≈ 0.102 µM)	0.49 (≈ 0.385 µM)	0.115 (≈ 0.0904 µM)	0.5 (≈ 0.393 µM)	0.25 (≈ 0.196 µM)	0.5 (≈ 0.393 µM)	C/C=C1\NC(=O)[C@H]([C@@H](C)O)NC(=O)c2csc(n2)-c2ccc(-c3nc(-c4nc(C(=O)NC5(C(=O)NCCN6CCN(C[C@@H](O)CO)CC6)CC5)cs4)cs3)nc2-c2csc(n2)[C@H]([C@@H](C)O)NC(=O)c2csc(n2)[C@H](C(C)C)NC(=O)c2csc1n2 [Compound 28]												

SMILES	MIC [1] [µg/mL]	MIC [2, 23] [µg/mL]	MIC [3, 24] [µg/mL]	MIC [11] [µg/mL]	MIC [16, 29] [µg/mL]	MIC [19] [µg/mL]	MIC [4, 25] [µg/mL]	MIC [5] [µg/mL]	MIC [6] [µg/mL]	MIC [12] [µg/mL]	MIC [13, 26] [µg/mL]	MIC [14, 27] [µg/mL]	MIC [15, 28] [µg/mL]	MIC [18, 30] [µg/mL]	MIC [20, 31] [µg/mL]	MIC [21, 32] [µg/mL]	MIC [22, 33] [µg/mL]	other results
C/C=C1\NC(=O)[C@H]([C@@H](C)O)NC(=O)c2csc(n2)-c2ccc(-c3nc(-c4nc(C(=O)NC5(C(=O)NCCCN6C(=O)CNC6=O)CC5)cs4)cs3)nc2-c2csc(n2)[C@H]([C@@H](C)O)NC(=O)c2csc(n2)[C@H](C(C)C)NC(=O)c2csc1n2 [Compound 9]		0.37 (≈ 0.302 µM)		0.25 (≈ 0.204 µM)	0.25 (≈ 0.204 µM)	0.5 (≈ 0.408 µM)	0.25 (≈ 0.204 µM)	0.125 (≈ 0.102 µM)	0.5 (≈ 0.408 µM)	0.5 (≈ 0.408 µM)	0.06 (≈ 0.0489 µM)	0.06 (≈ 0.0489 µM)	0.25 (≈ 0.204 µM)	0.25 (≈ 0.204 µM)	0.06 (≈ 0.0489 µM)	0.5 (≈ 0.408 µM)	0.5 (≈ 0.408 µM)	MIC [7]: 1 µg/mL (≈ 0.815 µM); MIC [8]: 1 µg/mL (≈ 0.815 µM); MIC [9]: 1 µg/mL (≈ 0.815 µM); MIC [10]: 0.5 µg/mL (≈ 0.408 µM); MIC [17]: 0.5 µg/mL (≈ 0.408 µM)
